Results reported in patent US20250287947A1, “BIOCIDES AND ADHESIVE BINDING THEREOF” (EBERHARD KARLS UNIVERSITÄT TÜBINGEN MEDIZINISCHE FAKULTÄT, priority 2022, published 2025).
Converted amounts (≈) assume the structure as drawn. Where two headings read alike, the source gives them in different places.

Columns and labels:
[1] = Modulation of the state of matter by pH shift using CO2 (Example 8); format: physicochemical
Description: 1% (w/v) and 5% (w/v) 5-N-carboxamido-2-pyrrolidone-N-n-dodecyl propane-1,3-diamine (Py-C12) free base solutions in water were gassed with carbon dioxide to reduce the pH from 9.5 to 7. […] After degassing of the CO2-gassed solutions, Py-C12 precipitates due to the increasing pH in a time dependent manner (see FIG. 3, right panel).

[2] = Influence of temperature on the state of matter of Py-C12 free base at different concentrations in water (Example 4); format: physicochemical; design: key: X: liquid; o: solid
Protocol: 5-N-carboxamido-2-pyrrolidone-N-n-dodecyl propane-1,3-diamine (Py-C12) free base at concentrations of 1% (w/v), 2.5% (w/V), 5% (w/V), 10% (w/V), 20% (w/), 30% (W/), 40% (w/V) were incubated at temperatures between 36° C. and 50° C. (see table 4).

[3] = test system: β-galactosidase-expressing E. coli strain; assay: Wash resistance and biocidal activity of Py-C12 treated beech wood sheets (Example 19); format: cell-based; conditions: treated with 1% (w/v) free base; washed with water up to 30 washing steps, 15 min each; E. coli 4 days at 37° C.
Protocol: In a first step, 1% (w/v) Py-C12 free base in water) was warmed to 50° C. to obtain a liquid solution. After incubation of beech wood sheets with the Py-C12 solution, the samples were cooled to room temperature upon which the liquid Py-C12 was converted into a solid phase and thus immobilized to the material. After drying, samples were washed with water at room temperature […] for 15 minutes each time. Thereafter, all samples were inoculated with a β-galactosidase-expressing E. coli strain and then incubated for 4 days at 37° C.

[4] = Modulation of the state of matter by salt concentration (Example 9); format: physicochemical; conditions: 2% (w/v), pH 7 (HCl), NaCl 0.5 M to 3 M in water, room temperature
Description: 2% (w/v) 5-N-carboxamido-2-pyrrolidone-N′-n-dodecyl propane-1,3-diamine (Py-C12) was adjusted with HCl to pH 7 and combined with different concentrations of NaCl ranging from 0.5 M to 3 M in water at room temperature. A clearly visible precipitate (white color) is observed at concentrations of 1.5 M or more (see FIG. 4).

[5] = test system: β-galactosidase-expressing E. coli strain; assay: Wash resistance and biocidal activity of Py-C12 treated cotton fabric (Example 18); format: cell-based; conditions: treated with 1% (w/v) free base, E. coli 3 days at 37° C.
Protocol: In a first step, 1% (w/v) Py-C12 free base in water was warmed to 50° C. to obtain a liquid solution. After incubation with the Py-C12 solution, the samples were cooled to room temperature upon which the liquid Py-C12 was converted into a solid phase and thus immobilized to the material. After drying, samples were washed with water at room temperature 10 and 30 times for 15 minutes each time. Thereafter, all samples were inoculated with a β-galactosidase-expressing E. coli strain and then incubated for 3 days at 37° C.

[6] = test system: β-galactosidase-expressing E. coli strain; assay: Wash resistance and biocidal activity of Py-C12 treated polyester fabric (Example 16); format: cell-based; conditions: treated with 5% (w/v) free base, E. coli 3 days at 37° C.
Protocol: In a first step, 5% (w/v) Py-C12 free base in water was warmed to 50° C. to obtain a liquid solution. After incubation with the Py-C12 solution, the samples were cooled to room temperature upon which the liquid Py-C12 was converted into a solid phase and thus immobilized to the material. After drying, samples were washed with water at room temperature 10, 20, and 30 times for 15 minutes each time. Thereafter, all samples were inoculated with a β-galactosidase-expressing E. coli strain and then incubated for 3 days at 37° C.

[7] = free base; i.e. 0.0033% (w/v) at ph 9.5; cited from earlier work
[8] = Interactions between salt concentration, temperature and pH on the state of matter of Py-C12 (Example 3); format: physicochemical; design: key: X: liquid; o: solid; conditions: 5% w/v
Protocol: […] The samples were combined with NaCl solutions using concentrations between 0 and 3 M in water and subsequently incubated at temperatures between 24° C. and 45° C.

[9] = washed 10 times with water 15 min
[10] = washed 30 times with water 15 min

CCCCCCCCCCCCNCCCNC(=O)C1CCC(=O)N1 (centres unmarked) [Py-C12, 5-N-carboxamido-2-pyrrolidone-N′-n-dodecyl propane-1,3-diamine]
solubility in water ([1]; 1% and 5% (w/v) free base gassed with CO2, pH from 9.5 to 7, room temperature): completely soluble
state of matter after degassing ([1]; 1% and 5% (w/v), after degassing of CO2, increasing pH, time dependent): precipitates
state of matter ([2]; free base 1% (w/v) in water, 36° C.): o
state of matter ([2]; free base 1% (w/v) in water, 38° C.): o
state of matter ([2]; free base 1% (w/v) in water, 40° C.): X
state of matter ([2]; free base 1% (w/v) in water, 42° C.): X
state of matter ([2]; free base 1% (w/v) in water, 44° C.): X
state of matter ([2]; free base 1% (w/v) in water, 46° C.): X
state of matter ([2]; free base 1% (w/v) in water, 48° C.): X
state of matter ([2]; free base 1% (w/v) in water, 50° C.): X
state of matter ([2]; free base 2.5% (w/v) in water, 36° C.): o
state of matter ([2]; free base 2.5% (w/v) in water, 38° C.): o
state of matter ([2]; free base 2.5% (w/v) in water, 40° C.): X
state of matter ([2]; free base 2.5% (w/v) in water, 42° C.): X
state of matter ([2]; free base 2.5% (w/v) in water, 44° C.): X
state of matter ([2]; free base 2.5% (w/v) in water, 46° C.): X
state of matter ([2]; free base 2.5% (w/v) in water, 48° C.): X
state of matter ([2]; free base 2.5% (w/v) in water, 50° C.): X
state of matter ([2]; free base 5% (w/v) in water, 36° C.): o
state of matter ([2]; free base 5% (w/v) in water, 38° C.): o
state of matter ([2]; free base 5% (w/v) in water, 40° C.): X
state of matter ([2]; free base 5% (w/v) in water, 42° C.): X
state of matter ([2]; free base 5% (w/v) in water, 44° C.): X
state of matter ([2]; free base 5% (w/v) in water, 46° C.): X
state of matter ([2]; free base 5% (w/v) in water, 48° C.): X
state of matter ([2]; free base 5% (w/v) in water, 50° C.): X
state of matter ([2]; free base 10% (w/v) in water, 36° C.): o
state of matter ([2]; free base 10% (w/v) in water, 38° C.): o
state of matter ([2]; free base 10% (w/v) in water, 40° C.): X
state of matter ([2]; free base 10% (w/v) in water, 42° C.): X
state of matter ([2]; free base 10% (w/v) in water, 44° C.): X
state of matter ([2]; free base 10% (w/v) in water, 46° C.): X
state of matter ([2]; free base 10% (w/v) in water, 48° C.): X
state of matter ([2]; free base 10% (w/v) in water, 50° C.): X
state of matter ([2]; free base 20% (w/v) in water, 36° C.): o
state of matter ([2]; free base 20% (w/v) in water, 38° C.): o
state of matter ([2]; free base 20% (w/v) in water, 40° C.): o
state of matter ([2]; free base 20% (w/v) in water, 42° C.): o
state of matter ([2]; free base 20% (w/v) in water, 44° C.): X
state of matter ([2]; free base 20% (w/v) in water, 46° C.): X
state of matter ([2]; free base 20% (w/v) in water, 48° C.): X
state of matter ([2]; free base 20% (w/v) in water, 50° C.): X
state of matter ([2]; free base 30% (w/v) in water, 36° C.): o
state of matter ([2]; free base 30% (w/v) in water, 38° C.): o
state of matter ([2]; free base 30% (w/v) in water, 40° C.): o
state of matter ([2]; free base 30% (w/v) in water, 42° C.): o
state of matter ([2]; free base 30% (w/v) in water, 44° C.): X
state of matter ([2]; free base 30% (w/v) in water, 46° C.): X
state of matter ([2]; free base 30% (w/v) in water, 48° C.): X
state of matter ([2]; free base 30% (w/v) in water, 50° C.): X
state of matter ([2]; free base 40% (w/v) in water, 36° C.): o
state of matter ([2]; free base 40% (w/v) in water, 38° C.): o
state of matter ([2]; free base 40% (w/v) in water, 40° C.): o
state of matter ([2]; free base 40% (w/v) in water, 42° C.): o
state of matter ([2]; free base 40% (w/v) in water, 44° C.): X
state of matter ([2]; free base 40% (w/v) in water, 46° C.): X
state of matter ([2]; free base 40% (w/v) in water, 48° C.): X
state of matter ([2]; free base 40% (w/v) in water, 50° C.): X
bacterial growth on treated beech wood sheets after washing [3]: Blue coloured bacteria only appear on control sample
NaCl concentration at which a clearly visible precipitate is observed [4]: ≥ 1.5 M
bacterial growth on treated cotton fabric after washing [5, 9]: doesn't show any bacterial growth
bacterial growth on treated cotton fabric after washing [5, 10]: few spots
bacterial growth on treated polyester fabric after washing [6, 9]: unstained
bacterial growth on treated polyester fabric after washing ([6]; washed 20 times with water 15 min): unstained
bacterial growth on treated polyester fabric after washing [6, 10]: Blue coloured bacteria
solubility in water [7]: 33 µg/mL (≈ 93.3 µM)
state of matter ([8]; pH 4.0, 28° C., 0.5M NaCl): X
state of matter ([8]; pH 4.0, 28° C., 1.0M NaCl): X
state of matter ([8]; pH 4.0, 28° C., 1.5M NaCl): X
state of matter ([8]; pH 4.0, 28° C., 2.0M NaCl): X
state of matter ([8]; pH 4.0, 28° C., 2.5M NaCl): o
state of matter ([8]; pH 4.0, 28° C., 3.0M NaCl): o
state of matter ([8]; pH 4.0, 28° C., no NaCl): X
state of matter ([8]; pH 9.0, 24 °C, 0.5M NaCl): o
state of matter ([8]; pH 9.0, 24 °C, 1.0M NaCl): o
state of matter ([8]; pH 9.0, 24 °C, 1.5M NaCl): o
state of matter ([8]; pH 9.0, 24 °C, 2.0M NaCl): o
state of matter ([8]; pH 9.0, 24 °C, 2.5M NaCl): o
state of matter ([8]; pH 9.0, 24 °C, 3.0M NaCl): o
state of matter ([8]; pH 9.0, 24 °C, no NaCl): o
